These are literature values, as cited in US20070077296A1, “Pharmaceutical Preparation containing Meloxicam” (priority 2005, published 2007).

Molecules are shown by their SMILES.

For the molecule `Cc1cnc(NC(=O)C2=C(O)c3ccccc3S(=O)(=O)N2C)s1` [meloxicam, 4-hydroxy-2-methyl-N-(5-methyl-2-thiazolyl)-2H-1,2-benzothiazine-3-carboxamide-1,1-dioxide], the solubility in water entry was “hardly dissolve in water”.
